Source: ChEMBL document CHEMBL1201862, “PubChem BioAssay data set” (2004)
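Method: 48-hour compound exposure of cells in 96-well plates, five concentrations, linear interpolation of endpoints. GI50 marks 50% less growth.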 The source made the active and inactive calls. Rule as the data show it: active = GI50 up to about 1.1 µM and inactive = higher.

Columns and labels:
Assay in all cases: DTP human tumour cell line panel, 48 h
ACHN = test system: ACHN
CAKI-1 = test system: CAKI-1
HCT-116 = test system: HCT-116
HOP-62 = test system: HOP-62
HOP-92 = test system: HOP-92
IGROV-1 = test system: IGROV-1
MOLT-4 = test system: MOLT-4
NCI-H226 = test system: NCI-H226
NCI-H460 = test system: NCI-H460
NCI-H522 = test system: NCI-H522
SF-268 = test system: SF-268
SF-295 = test system: SF-295
SK-MEL-2 = test system: SK-MEL-2
SN12C = test system: SN12C
TK-10 = test system: TK-10
UO-31 = test system: UO-31
786-0 = test system: 786-0
NCI-H23 = test system: NCI-H23
U-251 = test system: U-251

Row | Structure (SMILES) | GI50 (ACHN) | GI50 (CAKI-1) | GI50 (HCT-116) | GI50 (HOP-62) | GI50 (HOP-92) | GI50 (IGROV-1) | GI50 (MOLT-4) | GI50 (NCI-H226) | GI50 (NCI-H460) | GI50 (NCI-H522) | GI50 (SF-268) | GI50 (SF-295) | GI50 (SK-MEL-2) | GI50 (SN12C) | GI50 (TK-10) | GI50 (UO-31) | GI50 (786-0) | GI50 (NCI-H23) | GI50 (U-251)
1 | COc1ccc(/C=N/n2cnc3c(c2=O)S/C(=C2/SC(=S)N(c4ccc(C)cc4)C2=O)N3c2ccccc2)cc1 | 49.1 µM (inactive) | > 10 µM (inactive) | 56 µM (inactive) | 22.8 µM (inactive) | 25.8 µM (inactive) | 42.7 µM (inactive) | > 10 µM (inactive) | > 100 µM (inactive) | 68.7 µM (inactive) | 52.4 µM (inactive) | 29.4 µM (inactive) | 11.6 µM (inactive) | 79.4 µM (inactive) | > 100 µM (inactive) | > 100 µM (inactive) | > 100 µM (inactive) | – | – | –
2 | COc1cc([C@@H]2c3cc4c(cc3[C@@H](NC(=O)c3ccc(C(C)=O)cc3)C3COC(=O)[C@@H]32)OCO4)cc(OC)c1O (some centres undefined) | 0.189 µM (active) | 1.9 µM (inactive) | 0.52 µM (active) | 0.151 µM (active) | 1.19 µM (inactive) | 1.03 µM (active) | < 0.01 µM (active) | 0.159 µM (active) | < 0.01 µM (active) | 1.1 µM (active) | 1.09 µM (active) | 0.6 µM (active) | 2.82 µM (inactive) | 0.275 µM (active) | 5.81 µM (inactive) | 4.57 µM (inactive) | 0.327 µM (active) | 0.264 µM (active) | 0.0743 µM (active)
3 | CC(=O)OCC1OC(n2cc([N+](=O)[O-])c(=O)[nH]c2=O)C(OC(C)=O)C(OC(C)=O)C1OC(C)=O (centres undefined) | > 100 µM (inactive) | > 100 µM (inactive) | > 100 µM (inactive) | > 100 µM (inactive) | > 100 µM (inactive) | > 100 µM (inactive) | > 100 µM (inactive) | 42.2 µM (inactive) | > 100 µM (inactive) | > 100 µM (inactive) | > 100 µM (inactive) | > 100 µM (inactive) | > 100 µM (inactive) | > 100 µM (inactive) | > 100 µM (inactive) | > 100 µM (inactive) | > 100 µM (inactive) | > 100 µM (inactive) | > 100 µM (inactive)
4 | CCOC(=O)NC1CC2CCC1(OC)C=C2C (centres undefined) | > 100 µM (inactive) | > 53.5 µM (inactive) | > 100 µM (inactive) | > 100 µM (inactive) | > 100 µM (inactive) | > 100 µM (inactive) | > 100 µM (inactive) | > 100 µM (inactive) | > 100 µM (inactive) | > 100 µM (inactive) | > 100 µM (inactive) | > 100 µM (inactive) | > 100 µM (inactive) | > 100 µM (inactive) | > 100 µM (inactive) | > 100 µM (inactive) | > 100 µM (inactive) | > 100 µM (inactive) | > 100 µM (inactive)
5 | CC(C)=CCCC(C)[C@H]1CC(O)C2(C)C3=CCC4C(C)(C)[C@@H](O)CC[C@]4(C)C3=CC[C@]12C (some centres undefined) | – | 8.36 µM (inactive) | 2.4 µM (inactive) | 5.83 µM (inactive) | 3.27 µM (inactive) | 9.29 µM (inactive) | 15.2 µM (inactive) | 3.74 µM (inactive) | 2.24 µM (inactive) | 0.401 µM (active) | 6.01 µM (inactive) | 2.24 µM (inactive) | 23.3 µM (inactive) | 3.14 µM (inactive) | 16.7 µM (inactive) | 14.3 µM (inactive) | 1.55 µM (inactive) | 3.72 µM (inactive) | 2.28 µM (inactive)
6 | CC(=O)N/C=C/c1cc(O)ccc1O | 18.9 µM (inactive) | 16.6 µM (inactive) | 32.5 µM (inactive) | > 41 µM (inactive) | 18.7 µM (inactive) | > 55.1 µM (inactive) | 11.9 µM (inactive) | 46.3 µM (inactive) | > 60.7 µM (inactive) | 3.67 µM (inactive) | 31.8 µM (inactive) | 32.3 µM (inactive) | 34.9 µM (inactive) | 29.9 µM (inactive) | 39.2 µM (inactive) | 23.4 µM (inactive) | 33.2 µM (inactive) | 34.4 µM (inactive) | 37.2 µM (inactive)
7 | O=C(CCC(=O)C1CCC/C1=N/O)Nc1ccc(Cl)cc1 (centres undefined) | > 100 µM (inactive) | > 100 µM (inactive) | > 100 µM (inactive) | > 100 µM (inactive) | > 100 µM (inactive) | > 100 µM (inactive) | > 100 µM (inactive) | > 100 µM (inactive) | > 100 µM (inactive) | > 100 µM (inactive) | > 100 µM (inactive) | > 100 µM (inactive) | > 100 µM (inactive) | > 100 µM (inactive) | > 100 µM (inactive) | > 100 µM (inactive) | > 100 µM (inactive) | > 100 µM (inactive) | > 100 µM (inactive)
